System: free fatty acid production
Test: Inhibition of free fatty-acid production, in vivo, in catheterized male rats (NEFA assay on serum)
Design: species or system Sprague-Daly Rats
Details: food deprived catheterized rats, IP administration at various concentrations, FIG. 2A/2B
Protocol: Inhibition of Free Fatty-Acid Production, In Vivo, in Catheterized Male Sprague-Daly Rats
Non-esterified free-fatty acid (NEFA) assays were done on serum derived from live, freely moving rats. Jugular vein catheters were surgically implanted into the jugular veins and the animals were allowed to recover at least 48 hr post surgery. Food was removed from the animals approximately 16 hours prior to the assay. A draw of ˜200 μl blood was pulled from the catheter and represents the baseline NEFA serum sample. Drug was administered intra-peritoneally (IP) at various concentrations to individual rats and then ˜200 μl blood draws were pulled from the catheter at the indicated time points for further NEFA analysis. NEFA assays were performed according to the manufacturer's specifications (Wako Chemicals, USA; NEFA C) and free fatty acid concentrations were determined via regression analysis of a known standard curve (range of known free fatty acids). Data was analyzed using Excel and PrismGraph.

| Compound | inhibition of plasma free fatty acid (NEFA) |
| --- | --- |
| CC1(C2=CCCCC2)OC(C(=O)O)=CC1=O (racemic) [Compound 1, 5-Cyclohex-1-enyl-5-methyl-4-oxo-4,5-dihydro-furan-2-carboxylic acid] | able to inhibit free fatty acid production to the same extent, at similar doses and within the same time-frame as compared to nicotinic acid |
| O=C(O)c1cccnc1 [nicotinic acid, pyridine-3-carboxylic acid] | inhibiting plasma free fatty acid concentrations |
